Experimental data published in US11726088B2, “Sirtuin 4 (SIRT4) lipoamidase activity and uses thereof” (THE TRUSTEES OF PRINCETON UNIVERSITY, priority 2014, dated 2023).
Primed or numbered codes have the meaning given here. Ends that are not written are not given here. Peptide text beside a SMILES is read from it. * marks the point of attachment. ξ: configuration not given here. Biotin = O=C1N[C@H]2[C@H](CS[C@H]2CCCCC(=O)*)N1; lipoyl″ = O=C(CCCC[C@@H]1CCSS1)*; Lipoyl(6ξ) = O=C(CCCCC1CCSS1)*

T1: SIRT4 (Homo sapiens, UniProt Q9Y6E7)
T1 construct: 6xHis (followed by human rhinovirus 3C protease site) (N); made in house; host or cells: E. coli BL21(DE3), co-expressed with GroEL and GroES
T1 sequence (Q9Y6E7 33-314): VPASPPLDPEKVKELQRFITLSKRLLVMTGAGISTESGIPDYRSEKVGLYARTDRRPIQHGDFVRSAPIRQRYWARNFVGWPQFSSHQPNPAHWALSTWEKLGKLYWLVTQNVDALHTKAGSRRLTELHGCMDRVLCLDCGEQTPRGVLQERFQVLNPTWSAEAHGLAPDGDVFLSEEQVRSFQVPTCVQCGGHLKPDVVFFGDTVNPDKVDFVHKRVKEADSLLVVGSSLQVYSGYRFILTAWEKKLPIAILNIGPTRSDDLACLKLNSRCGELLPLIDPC

B1: PDP1: pyruvate dehydrogenase phosphatase catalytic subunit 1 (protein, UniProt Q9P0J1 72-537, looked up)
[Pyruvate dehydrogenase …: ASTPQKFYLTPPQVNSILKANEYSFKVPEFDGKNVSSILGFDSNQLPANAPIEDRRSAATCLQTRGMLLGVFDGHAGCACSQAVSERLFYYIAVSLLPHETLLEIENAVESGRALLPILQWHKHPNDYFSKEASKLYFNSLRTYWQELIDLNTGESTDIDVKEALINAFKRLDNDISLEAQVGDPNSFLNYLVLRVAFSGATACVAHVDGVDLHVANTGDSRAMLGVQEEDGSWSAVTLSNDHNAQNERELERLKLEHPKSEAKSVVKQDRLLGLLMPFRAFGDVKFKWSIDLQKRVIESGPDQLNDNEYTKFIPPNYHTPPYLTAEPEVTYHRLRPQDKFLVLATDGLWETMHRQDVVRIVGEYLTGMHHQQPIAVGGYKVTLGQMHGLLTERRTKMSSVFEDQNAATHLIRHAVGNNEFGTVDHERLSKMLSLPEELARMYRDDITIIVVQFNSHVVGAYQNQE
B2: SIRT4: N-terminally truncated recombinant human Sirt4 (33-314 of SEQ ID NO: 2) (protein, listed as Homo sapiens)
chain: T1 sequence (Q9Y6E7 33-314)

How the values were obtained:
Type in all cases: biochemical
[1] = biological target: T1, SIRT4; assay: HPLC-based SIRT4 kinetics assays (steady-state, acyl-modified peptide substrates); conditions: SIRT4 enzyme concentration = 5 μM; NAD 1 mM; 25° C.
Text: Recombinant SIRT4 protein expression and purification. N-terminally truncated human Sirt4 (33-314 of SEQ ID NO: 2) was cloned into a derivative of pET-15b containing a human rhinovirus 3C Protease cleavage site in place of its thrombin cleavage site. 6×His-Sirt4 was co-expressed with GroEL and GroES in BL21(DE3) E. coli in order to promote proper protein folding. Protein was purified using immobilized-metal affinity chromatography (IMAC) followed by anion-exchange chromatography to remove associated folding chaperones. For some experiments the His-tag was removed using 3C protease. Protein was concentrated, snap frozen in N2(l), and stored at −80° C. HPLC-based SIRT4 kinetics assays. SIRT4 kinetic assays were essentially performed as described by others^3,4. Briefly, enzyme reactions (20 μL) were performed in 50 mM Tris, pH 8.0, containing 5 μM recombinant SIRT4 and varying concentrations (0 to 2500 μM) of H3K9- or DLAT-modified peptides with either acetyl-lysine, biotinyl-lysine, or lipoyl-lysine. Reactions were initiated by addition of NAD (1 mM) and incubated at 25° C. for between 30-120 min, depending on substrate-specific reaction rates and to maintain steady-state conditions. Reactions were quenched with formic acid to a final concentration of 0.5% (v/v) and analyzed by HPLC-UV detection (Ultimate 3000 RSLC/VWD-3400). Substrate and product were separated by reverse-phase chromatography (Acclaim PepMap RSLC, 75 μm×15 cm) at 0.75 μL/min. Product concentration was measured by peak integration of A280 signals. Initial reaction velocities were determined in at least duplicate and fit to a modified Briggs-Haldane equation, which substituted kcat×[SIRT4] for Vmax and allowed determination of kinetic parameters, kcat, Km and kcat/Km and their associated error (±SEM), using GraphPad Prism 5. SIRT4's catalytic efficiency towards the various acyl-modified peptide substrates was assessed (Table 1 below).

[2] = biological target: T1, SIRT4; assay: LC-MS-based in vitro peptide deacylation assay; conditions: 5 μM SIRT4, 10 uM peptide, with NAD, 1 hr at 37° C.
Text: Recombinant SIRT4 protein expression and purification. N-terminally truncated human Sirt4 (33-314 of SEQ ID NO: 2) was cloned into a derivative of pET-15b containing a human rhinovirus 3C Protease cleavage site in place of its thrombin cleavage site. 6×His-Sirt4 was co-expressed with GroEL and GroES in BL21(DE3) E. coli in order to promote proper protein folding. Protein was purified using immobilized-metal affinity chromatography (IMAC) followed by anion-exchange chromatography to remove associated folding chaperones. For some experiments the His-tag was removed using 3C protease. Protein was concentrated, snap frozen in N2(l), and stored at −80° C.
LC-MS-based in vitro peptide deacylation assay. The ability of SIRT4 to hydrolyze various acyl-lysine modifications was measured using LC-MS. In 20 μL reaction volume, 10 uM peptide (lipoyl-, biotinyl-, or acetyl-lysine) was incubated with increasing concentrations of SIRT4 (0.5 μM, 2.5 μM, and 5 μM), with or without NAD, in 50 mM TrisHCl, pH 8, 137 mM NaCl, 2.7 mM KCl and 1 mM MgCl2, for 1 hr at 37° C. Reactions were quenched with 25 μL of 2% TFA and an internal control peptide was spiked in to monitor for run-to-run variability. Reaction products were desalted, eluted, concentrated and analyzed by nano-LC-MS/MS, as above, but altered LC gradients. A 30 min linear gradient from 4-40% B was used for all peptides, except for lipoyl-lysine biological peptides, which used a 12-70% B linear gradient. Data were imported into Skyline software (version 2.1) to obtain precursor extracted ion chromatographams (XICs) using the following settings: Isotope Count, 3; precursor mass analyzer, Orbitrap; Resolving power, 60,000 @ 400 Th. The retention times of substrate (modified) and product (unmodified) peptides were confirmed by fragmentation spectra and peak integration boundaries were manually inspected. Three biological replicates were analyzed for each reaction.
The lipoamide cofactor bound to E2 (transferase enzymes) is required for dehydrogenase complex activity (FIG. 1b). Given that other mitochondrial SIRTs can hydrolyze various […] group lysine modifications^3,4 and that all PDHC components were present in our SIRT4 isolation, we speculated that E2 dehydrogenase components may be biological substrates of SIRT4, and that SIRT4 may directly hydrolyze the lipoamid modification. To test this we screened the in vitro activity of recombinant SIRT4 against differentially-modified synthetic peptides (FIG. 10). Firstly, SIRT4 activity towards acyl-modified H3K9 peptides (SEQ ID NOs: 3-5) was measured using a liquid-chromatography (LC)-MS-based deacylation assay. SIRT4 was incubated with H3K9 peptides modified with acetyl-lysine (SEQ ID NO: 5), biotinyl-lysine (SEQ ID NO: 4) or lipoyl-lysine (SEQ ID NO: 3), in the presence or absence of NAD. Following reaction, the remaining unreacted substrates and newly generated unmodified peptides were identified and quantified by LC-MS (FIG. 2A, 2G-2I and FIG. 5). […] To compare the relative preference of SIRT4 for these different substrates, we used extracted ion chromatograms to quantify unreacted substrate (S) and product (P) amounts from all reactions, and represented the percentage of unmodified peptide generated (FIG. 2H). […] The relative amount of unmodified product generated using 5 μM SIRT4 was 11% (lipoyl—SEQ ID NO: 3), 3% (biotinyl—SEQ ID NO: 4) and 0.3% (acetyl—[…]) (FIG. 2B and FIG. 2H, H3K9 substrates). […]

[3] = tested on: purified porcine PDH; assay: Immuno-capture activity assay of purified porcine PDH in vitro; conditions: PDP1 0.1 μg/μL; recombinant SIRT4 50 μM + NAD 5 mM after PDP1
Protocol: Purified porcine heart PDH pre-incubated at a final concentration of 1 μg/μl (10 and 25 μL reactions for PDH assay and Western blot, respectively) in 1×PDH assay buffer for 10 min at 30° C. containing 2 mM CaCl2), with or without 0.1 μg/μL of pyruvate dehydrogenase phosphatase catalytic subunit 1 (PDP1, Abcam, cat. #ab110357). To reactions that were treated with PDP1, either NAD alone (5 mM), recombinant SIRT4 (50 μM)+NAD (5 mM), or recombinant SIRT4 H161Y (50 μM)+NAD (5 mM) were added and incubated for an additional 1 hr at RT. 10 μL reactions were diluted with 400 μL of 1×PDH assay buffer and 2×200 μL were used to determine PDH activity. For Western blot analysis (25 μl reactions), 5 μg of purified porcine PDH was mixed in 1× reducing LDS sample buffer, heated at 70° C. for 10 min, resolved by SDS-PAGE, and then proteins were transferred to nitrocellulose membranes for detection of total E1α, pS232, pS293, and pS300 (see western immunoblotting above).
To characterize the impact of the observed in vitro activity, we next assessed whether SIRT4 could regulate the activity of PDH. We first used an immuno-capture assay to test the activity of purified porcine PDH in vitro (FIG. 14A). […] Therefore, we speculated that the reduction in activity may result from SIRT4 directly hydrolyzing the DLAT lipoamide.

| Molecule | Km [1] | relative amount of unmodified product generated [2] | activity of purified porcine PDH [3] |
| --- | --- | --- | --- |
| CC[C@H](C)[C@H](NC(=O)[C@@H](NC(=O)[C@H](C)NC(=O)[C@H](CCCCNC(C)=O)NC(=O)[C@H](CC(=O)O)NC(=O)[C@@H](NC(=O)[C@H](CCC(=O)O)NC(=O)[C@@H](NC(=O)[C@@H](N)CCC(=O)O)[C@@H](C)CC)[C@@H](C)O)[C@@H](C)O)C(=O)NCC(=O)N[C@@H](Cc1c[nH]c2ccccc12)C(=O)O [DLAT K259 Acetyl] (H-EIETDK(Ac)ATIGW-OH) | > 2500 µM | – | – |
| CC(=O)NCCCC[C@H](NC(=O)[C@H](CCCNC(=N)N)NC(=O)[C@H](C)NC(=O)[C@@H](NC(=O)[C@H](CCC(N)=O)NC(=O)[C@@H](N)CCCCN)[C@@H](C)O)C(=O)N[C@@H](CO)C(=O)N[C@H](C(=O)NCC(=O)NCC(=O)N[C@@H](Cc1c[nH]c2ccccc12)C(=O)N[C@@H](Cc1c[nH]c2ccccc12)C(=O)O)[C@@H](C)O [H3 K9 Acetyl] (H-KQTARK(Ac)STGGWW-OH) | > 2500 µM | 0.3% | – |
| C[C@H](NC(=O)[C@@H](NC(=O)[C@H](CCC(N)=O)NC(=O)[C@@H](N)CCCCN)[C@@H](C)O)C(=O)N[C@@H](CCCNC(=N)N)C(=O)N[C@@H](CCCCNC(=O)CCCC[C@@H]1SC[C@@H]2NC(=O)N[C@@H]21)C(=O)N[C@@H](CO)C(=O)N[C@H](C(=O)NCC(=O)NCC(=O)N[C@@H](Cc1c[nH]c2ccccc12)C(=O)N[C@@H](Cc1c[nH]c2ccccc12)C(=O)O)[C@@H](C)O [H3 K9 Biotinyl] (H-KQTARK(Biotin)STGGWW-OH) | 719 ± 79 µM | 3% | – |
| C[C@H](NC(=O)[C@@H](NC(=O)[C@H](CCC(N)=O)NC(=O)[C@@H](N)CCCCN)[C@@H](C)O)C(=O)N[C@@H](CCCNC(=N)N)C(=O)N[C@@H](CCCCNC(=O)CCCCC1CCSS1)C(=O)N[C@@H](CO)C(=O)N[C@H](C(=O)NCC(=O)NCC(=O)N[C@@H](Cc1c[nH]c2ccccc12)C(=O)N[C@@H](Cc1c[nH]c2ccccc12)C(=O)O)[C@@H](C)O (some centres unmarked) [H3 K9 Lipoyl] (H-KQTARK(Lipoyl(6ξ))STGGWW-OH) | 814 ± 163 µM | 11% | – |
| MCD K471 Acetyl: synthetic MCD K471 peptide SYLGSKNIKASEW with acetyl-lysine (SEQ ID NO: 29) (also: acetyl-lysine at K471, K6 or K9 not given here) | > 2500 µM | – | – |
| PDHX: lipoyl-modified PDHX peptide substrate (SEQ ID NO: 12); unmodified product is SEQ ID NO: 13 (EIETDK(lipoyl″)AVVTWW) | – | 42% | – |
| B1 | – | – | elevated PDH activity |
| B2 | – | – | able to attenuate PDH activity |
